{"source": "paper PMC9721052", "about": "“AHL-Priming Protein 1 mediates N-3-oxo-tetradecanoyl-homoserine lactone priming in Arabidopsis” (BMC Biology, 2022)", "molecular_target": "T1, ALI1 (AHL-Priming Protein 1; AtGlcAK2, formerly AtGALK2) (Arabidopsis thaliana, UniProt Q9LY82)", "T1 construct": "gene GLCAK2; full ORF amplified from Col-0 cDNA, pDEST17, N-terminal 6xHis kept, expressed in E. coli BL21, Ni-NTA purified; GST-ALI1 also made for the biosensor assay", "T1 sequence (Q9LY82 1-366)": "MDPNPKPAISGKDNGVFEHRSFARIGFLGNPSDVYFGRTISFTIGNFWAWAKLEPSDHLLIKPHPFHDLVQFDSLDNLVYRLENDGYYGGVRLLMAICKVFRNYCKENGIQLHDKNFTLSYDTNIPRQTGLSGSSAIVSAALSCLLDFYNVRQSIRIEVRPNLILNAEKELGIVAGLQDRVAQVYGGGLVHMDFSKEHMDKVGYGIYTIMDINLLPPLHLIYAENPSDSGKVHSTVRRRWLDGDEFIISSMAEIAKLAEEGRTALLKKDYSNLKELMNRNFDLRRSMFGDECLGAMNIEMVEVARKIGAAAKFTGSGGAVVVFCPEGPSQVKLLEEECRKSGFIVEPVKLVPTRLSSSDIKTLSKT", "assay": "sequestration of free ligand read by biosensor E. coli LuxCDABE luminescence", "assay_type": "binding", "details": "6 nmol protein, 0-18 nmol ligand, overnight; indirect assay, MST and nanoDSF by the same authors did not confirm"}
{"smiles": "CCCCCCCCCCCC(=O)CC(=O)N[C@H]1CCOC1=O", "note": "[oxo-C14-HSL]", "values": [{"measurement": "sequestration of free ligand read by biosensor E. coli LuxCDABE luminescence", "result": "equivalently able to sequestrate oxo-C14-HSL molecule from the solution"}]}
